{"source": "patent US6149904A", "about": "“Method for inhibiting tumor cell growth by administering to tumor cells expressing a nucleic acid encoding a connexin and a pro-drug” (The Regents of the University of California, priority 1997, dated 2000)", "key": {"[1]": {"tested_on": "9L glial tumor cells mixed with PA317 fibroblasts expressing HSV-tk", "assay": "GCV tumor toxicity, co-injected tumor cells and HSV-tk PA317 fibroblasts (Example 1)", "format": "in vivo, athymic BALB/C mice", "conditions": "GCV 25 mg/kg BID 7 days; tumors removed 14 days after start of GCV; 9L (high coupling) vs C6 (low coupling); FIG. 3", "method": "The HSV-tk gene was stably cloned into a PA/317 fibroblasts as described in Mol. Cell. Biol. 6:2895-2902 (1986) and New Eng. J. Med. 232:570-578 (1990). Athymic (immune-incompetent) BALB/C mice were injected subcutaneously with mixtures of: 1) 1×10^7 tumor cells known to have either high (9L glial tumor cells) or low (C6 glial tumor cells) levels of gap junction mediated intercellular transport, and 2) 1×10^7 immortalized mouse fibroblasts (PA317 cells) engineered to express HSV-tk. The mixtures of inoculated cells were allowed to grow into tumors over a period of 7-14 days (the time for detectable tumor formation varied depending on the identity and number of injected cells). The tumor-bearing animals were then treated for 7 days with GCV (25 mg/kg, BID) or with phosphate buffeted saline (PBS). Tumor size was periodically monitored.\n14 days following the initiation of GCV treatment the tumors were removed. FIG. 3 summarizes the average weight of tumors following their removal. […] Thus, tumor toxicity was greater in tumors with higher levels of gap junction mediated intercellular transport."}, "[2]": {"tested_on": "9L glial tumor cells", "assay": "GCV therapy after injecting HSV-tk+ PA317 fibroblasts into pre-existing tumors (Example 2)", "format": "in vivo, athymic mice", "conditions": "GCV 25 mg/kg BID 7 days from 24 h after fibroblast injection; tumors weighed 14 days after start; FIG. 4", "method": "5 athymic (immuno-incompetent) mice were injected subcutaneously with 1×10^7 tumor cells known to have either high (9L glial tumor cells) or low (C6 glial tumor cells) levels of gap junction mediated intercellular transport. 1×10^7 HSV-tk^+ fibroblasts (PA317 cells) were injected into the center of tumors that were formed. GCV therapy (25 mg/kg, BID) was commenced 24 hours later and continued for 7 days. 14 days following the initiation of GCV treatment the tumors were removed and weighed.\nThese findings indicate the importance of gap junction mediated transport for the bystander killing of tumor cells."}, "[3]": {"tested_on": "9L tumor cells mixed with HSV-tk+ fibroblasts expressing connexin43", "assay": "GCV treatment of 9L tumors with HSV-tk+ fibroblasts expressing connexin43 (Example 4)", "format": "in vivo, athymic mice", "method": "(§1) 5 athymic (immuno-incompetent) mice were injected subcutaneously with mixtures of 1×10^7 9L tumor cells and either immortalized connexin43^- mouse fibroblasts engineered to express HSV-tk (5 mice) or immortalized mouse fibroblasts from normal mice which express connexin 43 and had also been engineered to express HSV-tk (5 mice). The inoculated cells were allowed to grow into tumors. The tumor-bearing animals were treated with GCV (25 mg/kg) for 7 days. Tumor size was monitored and 14 days following the initiation of GCV treatment the tumors were removed. In a parallel experiment, animals injected with a mixture of 1×10^79L tumor cells and with immortalized connexin43^- mouse fibroblasts engineered to express HSV-tk were mock-treated with sham injections of phosphate buffeted saline (PBS) lacking GCV.\nOf the 5 animals with tumors consisting of 9L cells and HSV-tk^+ fibroblasts expressing connexin43, only 3 animals still had detectable tumors when examined 7 days after the completion of GCV therapy. […] A matched control group of 5 animals which received sham injections of phosphate buffeted saline (PBS) instead of GCV all had tumors 7 days after the completion of this \"sham treatment\"."}, "[4]": {"tested_on": "9L tumor cells mixed with HSV-tk+ connexin43- fibroblasts", "assay": "GCV treatment of 9L tumors with HSV-tk+ connexin43- fibroblasts (Example 4)", "format": "in vivo, athymic mice", "method": "as §1\nTwo other groups of 5 animals inoculated with mixtures of 9L cells and HSV-tk^+ fibroblasts derived from cells lacking any connexin43 genes were identically treated."}}, "data": [{"smiles": "Nc1nc(O)c2ncn(COC(CO)CO)c2n1", "note": "[GCV, Ganciclovir]", "values": [{"measurement": "tumor size (average weight of tumors) versus C6 tumors treated with GCV", "setting": "[1]", "result": "significantly smaller"}, {"measurement": "effect of GCV treatment on tumor weight, 9L versus C6 tumors", "setting": "[2]", "result": "greater in 9L cells"}, {"measurement": "animals with detectable tumors (of 5)", "setting": "[3]; 7 days after completion of GCV therapy, 5 animals in group", "result": 3, "unit": "animals"}, {"measurement": "average tumor weight", "setting": "[3]; GCV 25 mg/kg 7 days, 7 days after completion of GCV therapy, PBS sham control 4.35 g", "result": 0.63, "unit": "g"}, {"measurement": "therapeutic effect of GCV administration against tumors", "setting": "[3]; GCV 25 mg/kg 7 days, fibroblasts with normal connexin 43 genes, FIG. 6", "result": "highly therapeutic effect"}, {"measurement": "therapeutic effect of GCV administration against tumors", "setting": "[4]; GCV 25 mg/kg 7 days, fibroblasts with connexin genes deleted, FIG. 6", "result": "not effective"}, {"measurement": "animals with tumors (of 5)", "setting": "[4]; after 7 days of GCV treatment, 5 animals in group", "result": 5, "unit": "animals"}, {"measurement": "average tumor weight", "setting": "[4]; after 7 days of GCV treatment, group without GCV 5.68 g", "result": 5.43, "unit": "g"}]}]}
